In ChEMBL document CHEMBL3351867, “Sequence-specific DNA alkylation and transcriptional inhibition by long-chain hairpin pyrrole-imidazole polyamide-chlorambucil conjugates targeting CAG/CTG trinucleotide repeats” (Bioorg Med Chem, 2014) one finds Activity and Kd data, which are given here for eight compounds.

The nature of assay [1]: Induction of DNA alkylation of DNA fragments with (CAG)12 repeat sequence (unknown origin) assessed as inhibition of T7 RNA polymerase-mediated transcription using T7 promoter primer and sp6 promoter primer at 10 to 30 nM after 18 hrs by […] staining based high resolution gel electrophoresis.
The nature of assay [2]: Induction of DNA alkylation of DNA fragments with (CTG)12 repeat sequence (unknown origin) assessed as inhibition of T7 RNA polymerase-mediated transcription using T7 promoter primer and sp6 promoter primer at 10 to 30 nM after 18 hrs by […] staining based high resolution gel electrophoresis.
A short description of assay [3]: Binding affinity to biotinylated (5'-AGCAGCAGCA-3'/5'-TGCTGCTGCT-3') hairpin DNA (unknown origin) by SPR assay.
The nature of assay [4]: Induction of DNA alkylation of 5'-Texas Red-labeled 214 bp DNA fragments with (CAG)12 repeat sequence (unknown origin) at 2.5 to 20 nM after 18 hrs by high resolution gel electrophoresis.
A short description of assay [5]: Induction of DNA alkylation of 5'-Texas Red-labeled 214 bp DNA fragments with (CTG)12 repeat sequence (unknown origin) at 2.5 to 20 nM after 18 hrs by high resolution gel electrophoresis.
The nature of assay [6]: Induction of DNA alkylation of 5'-Texas Red-labeled 214 bp DNA fragments with (5'-(CAG)12CAA-3' repeat sequence (unknown origin) at 2.5 to 20 nM after 18 hrs by high resolution gel electrophoresis.
The nature of assay [7]: Induction of DNA alkylation of 5'-Texas Red-labeled 214 bp DNA fragments with (5'-TTG(CTG)12-3' repeat sequence (unknown origin) at 2.5 to 20 nM after 18 hrs by high resolution gel electrophoresis.
Assay [8] in a line: Induction of DNA alkylation of 5'-Texas Red-labeled 214 bp DNA fragments with (CAG)12 repeat sequence (unknown origin) at 150 nmol after 18 hrs by high resolution gel electrophoresis.
Assay [9] can be described thus: Binding affinity to biotinylated (5'-AGCAGCAGCA-3'/5'-TGCTGCTGCT-3') hairpin DNA (unknown origin) assessed as […] of compound from 1:1 compound and DNA complex by SPR assay.
A short description of assay [10]: Binding affinity to biotinylated (5'-AGCAGCAGCA-3'/5'-TGCTGCTGCT-3') hairpin DNA (unknown origin) assessed as […] of compound from 2:1 compound and DNA complex by SPR assay.

Calls of active or inactive are those of the source. No cut-off for these calls is given here.

`CC(=O)Nc1cn(C)c(C(=O)Nc2cc(C(=O)NCCC(=O)Nc3cn(C)c(C(=O)Nc4cc(C(=O)NCCC(=O)Nc5cn(C)c(C(=O)Nc6cc(C(=O)NCC[C@@H](N)C(=O)Nc7cn(C)c(C(=O)Nc8cc(C(=O)NCCC(=O)Nc9cn(C)c(C(=O)Nc%10cc(C(=O)NCCC(=O)Nc%11cn(C)c(C(=O)Nc%12cc(C(=O)NCCC(=O)NCCCN(C)CCCN)n(C)c%12)n%11)n(C)c%10)n9)n(C)c8)n7)n(C)c6)n5)n(C)c4)n3)n(C)c2)n1`: the result in assay [1] and in assay [2] was inactive. Further, binding in [3] was characterised by a dissociation constant (Kd) of 0.011 µM.
`CC(=O)Nc1cn(C)c(C(=O)Nc2cc(C(=O)NCCC(=O)Nc3cn(C)c(C(=O)Nc4cc(C(=O)NCCC(=O)Nc5cn(C)c(C(=O)Nc6cc(C(=O)NCCCC(=O)Nc7cn(C)c(C(=O)Nc8cc(C(=O)NCCC(=O)Nc9cn(C)c(C(=O)Nc%10cc(C(=O)NCCC(=O)Nc%11cn(C)c(C(=O)Nc%12cc(C(=O)NCCC(=O)NCCCN(C)CCCN)n(C)c%12)n%11)n(C)c%10)n9)n(C)c8)n7)n(C)c6)n5)n(C)c4)n3)n(C)c2)n1` had a Kd in [3] of 0.053 µM.
On to `CC(=O)Nc1cn(C)c(C(=O)Nc2cc(C(=O)NCCC(=O)Nc3cn(C)c(C(=O)Nc4cc(C(=O)NCCC(=O)Nc5cn(C)c(C(=O)Nc6cc(C(=O)NCCCC(=O)Nc7cn(C)c(C(=O)Nc8cc(C(=O)NCCC(=O)Nc9cn(C)c(C(=O)Nc%10cc(C(=O)NCCC(=O)Nc%11cn(C)c(C(=O)Nc%12cc(C(=O)NCCC(=O)NCCCN(C)CCCNC(=O)CCCc%13ccc(N(CCCl)CCCl)cc%13)n(C)c%12)n%11)n(C)c%10)n9)n(C)c8)n7)n(C)c6)n5)n(C)c4)n3)n(C)c2)n1`, for which the result in assay [4], in [5], in [6] and in assay [7] was Active.
With `CC(=O)Nc1cn(C)c(C(=O)Nc2cc(C(=O)NCCC(=O)Nc3cn(C)c(C(=O)Nc4cc(C(=O)NCCCC(=O)Nc5cn(C)c(C(=O)Nc6cc(C(=O)NCCC(=O)Nc7cn(C)c(C(=O)Nc8cc(C(=O)NCCC(=O)NCCCN(C)CCCNC(=O)CCCc9ccc(N(CCCl)CCCl)cc9)n(C)c8)n7)n(C)c6)n5)n(C)c4)n3)n(C)c2)n1`, in assay [4], the outcome was inactive. In addition, the outcome in assay [8] and in assay [5] was Active.
As for `CC(=O)Nc1cn(C)c(C(=O)Nc2cc(C(=O)NCCC(=O)Nc3cn(C)c(C(=O)Nc4cc(C(=O)NCCCC(=O)Nc5cn(C)c(C(=O)Nc6cc(C(=O)NCCC(=O)Nc7cn(C)c(C(=O)Nc8cc(C(=O)NCCC(=O)NCCCN(C)CCCN)n(C)c8)n7)n(C)c6)n5)n(C)c4)n3)n(C)c2)n1`, binding in [3] was put at a Kd of 0.014 µM.
Consider `CC(=O)Nc1cn(C)c(C(=O)Nc2cc(C(=O)NCCC(=O)Nc3cn(C)c(C(=O)Nc4cc(C(=O)NCCC(=O)NCCCN(C)CCCN)n(C)c4)n3)n(C)c2)n1`, for which the dissociation constant (Kd) in [9] was 0.61 µM; in [10], 0.013 µM.
Regarding `CC(=O)Nc1cn(C)c(C(=O)Nc2cc(C(=O)NCCC(=O)Nc3cn(C)c(C(=O)Nc4cc(C(=O)NCCC(=O)Nc5cn(C)c(C(=O)Nc6cc(C(=O)NCC[C@@H](N)C(=O)Nc7cn(C)c(C(=O)Nc8cc(C(=O)NCCC(=O)Nc9cn(C)c(C(=O)Nc%10cc(C(=O)NCCC(=O)Nc%11cn(C)c(C(=O)Nc%12cc(C(=O)NCCC(=O)NCCCN(C)CCCNC(=O)CCCc%13ccc(N(CCCl)CCCl)cc%13)n(C)c%12)n%11)n(C)c%10)n9)n(C)c8)n7)n(C)c6)n5)n(C)c4)n3)n(C)c2)n1`, the outcome in [6] and in [7] was Active. Also, the Activity entry in assay [1] and in assay [2] was “Dose-dependent effect” in each case.
For `CC(=O)Nc1cn(C)c(C(=O)Nc2cc(C(=O)NCCC(=O)Nc3cn(C)c(C(=O)Nc4cc(C(=O)NCCC(=O)NCCCN(C)CCCNC(=O)CCCc5ccc(N(CCCl)CCCl)cc5)n(C)c4)n3)n(C)c2)n1`, the outcome in [4] and in assay [5] was inactive.
